Assay results: US11820766B2, “Monoacylglycerol lipase modulators” (Janssen Pharmaceutica NV, priority 2018, dated 2023)

Each molecule was assayed against T1, human MGL from HeLa cells (Homo sapiens, UniProt Q99685) (assay: In vitro MGL activity assay: [glycerol-1,3-3H]-oleyl glycerol cleavage by MGL from HeLa cells). Details: 300 nM [Glycerol-1,3-3H]-oleyl glycerol, one hour.
T1 construct: combining endogenously expressed MGL from HeLa cells with test compounds; endogenous in cells; host or cells: HeLa cells / cell homogenates
T1 sequence (Q99685 1-303): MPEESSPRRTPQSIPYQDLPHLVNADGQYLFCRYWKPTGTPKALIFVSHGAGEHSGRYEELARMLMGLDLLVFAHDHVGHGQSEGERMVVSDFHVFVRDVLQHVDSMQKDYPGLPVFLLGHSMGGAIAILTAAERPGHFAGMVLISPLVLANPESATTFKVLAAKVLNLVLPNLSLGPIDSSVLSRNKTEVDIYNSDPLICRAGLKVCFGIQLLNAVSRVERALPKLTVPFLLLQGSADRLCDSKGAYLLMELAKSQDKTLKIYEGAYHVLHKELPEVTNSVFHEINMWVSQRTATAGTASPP
Assay type: biochemical
From the text: MGL is the predominant hydrolase in HeLa cells/cell homogenates.

Row | SMILES | IC50
1 | C[C@H]1c2nn(C)c(-c3cc(F)c(F)c(F)c3)c2CCN1C(=O)c1cnn(C)c1C1CC1(F)F (stereo partly drawn) [Example 336, (5-(2,2-Difluorocyclopropyl)-1-methyl-1H-pyrazol-4-yl)((S)-2,7-dimethyl-3-(3,4,5-trifluorophenyl)-4,5-dihydro-2H-pyrazolo[3,4-c]pyridin-6-yl)methanone] | 8.7 nM
2 | COc1ccn2ncc(C(=O)N3CCc4c(nn(C)c4-c4cc(F)c(F)c(F)c4)[C@@H]3C)c2c1 [Example 389, [(7S)-2,7-Dimethyl-3-(3,4,5-trifluorophenyl)-5,7-dihydro-4H-pyrazolo[3,4-c]pyridin-6-yl]-(5-methoxypyrazolo[1,5-a]pyridin-3-yl)methanone] | 9.94 nM
3 | Cc1ccnc2ccc(C(=O)N3CCc4c(nn(C)c4-c4cc(F)c(F)c(F)c4)[C@@H]3C)cc12 [Example 549, [(7S)-2,7-Dimethyl-3-(3,4,5-trifluorophenyl)-5,7-dihydro-4H-pyrazolo[3,4-c]pyridin-6-yl]-(4-methyl-6-quinolyl)methanone] | 1.99 nM
4 | C[C@H]1c2nn(C)c(-c3ccc(OC(F)F)nc3)c2CCN1C(=O)c1ccc2ncccc2c1 [Example 527, [(7S)-3-[6-(Difluoromethoxy)-3-pyridyl]-2,7-dimethyl-5,7-dihydro-4H-pyrazolo[3,4-c]pyridin-6-yl]-(6-quinolyl)methanone] | 278 nM
5 | C[C@H]1c2nn(C)c(-c3cc(F)c(F)c(F)c3)c2CCN1C(=O)c1ncn2ccccc12 [Example 420, [(7S)-2,7-Dimethyl-3-(3,4,5-trifluorophenyl)-5,7-dihydro-4H-pyrazolo[3,4-c]pyridin-6-yl]-imidazo[1,5-a]pyridin-1-yl-methanone] | 59.1 nM

More lines, now with the values ahead:

Row | IC50 | SMILES
6 | 29.8 nM | COc1ccnc(C(=O)N2CCc3c(nn(C)c3-c3cc(F)cc(OC(F)F)c3)[C@@H]2C)c1Cl [Example 612, (3-Chloro-4-methoxy-2-pyridyl)-[(7S)-3-[3-(difluoromethoxy)-5-fluoro-phenyl]-2,7-dimethyl-5,7-dihydro-4H-pyrazolo[3,4-c]pyridin-6-yl]methanone]
7 | 5.86 nM | C[C@H]1c2nn(C)c(-c3cc(F)c(F)c(F)c3)c2CCN1C(=O)c1ncnc2c1ccn2C [Example 466, [(7S)-2,7-Dimethyl-3-(3,4,5-trifluorophenyl)-5,7-dihydro-4H-pyrazolo[3,4-c]pyridin-6-yl]-(7-methylpyrrolo[2,3-d]pyrimidin-4-yl)methanone]
8 | 110 nM | C[C@H]1c2nn(C)c(-c3cc(F)c(F)c(F)c3)c2CCN1C(=O)c1nc(-c2ccccc2)cn1C [Example 600, [(7S)-2,7-Dimethyl-3-(3,4,5-trifluorophenyl)-5,7-dihydro-4H-pyrazolo[3,4-c]pyridin-6-yl]-(1-methyl-4-phenyl-imidazol-2-yl)methanone]
9 | 8.88 nM | C[C@H]1c2nn(C)c(-c3cc(F)c(F)c(F)c3)c2CCN1C(=O)c1c[nH]c2cccc(F)c12 [Example 357, [(7S)-2,7-Dimethyl-3-(3,4,5-trifluorophenyl)-5,7-dihydro-4H-pyrazolo[3,4-c]pyridin-6-yl]-(4-fluoro-1H-indol-3-yl)methanone]
10 | 192 nM | Cc1ccn2cnc(C(=O)N3CCc4c(nn(C)c4-c4cc(F)c(F)c(F)c4)[C@@H]3C)c2c1 [Example 419, [(7S)-2,7-Dimethyl-3-(3,4,5-trifluorophenyl)-5,7-dihydro-4H-pyrazolo[3,4-c]pyridin-6-yl]-(7-methylimidazo[1,5-a]pyridin-1-yl)methanone]
11 | 2.74 nM | C[C@H]1c2nn(C)c(-c3cc(F)c(F)c(F)c3)c2CCN1C(=O)c1n[nH]c2cccc(F)c12 [Example 362, [(7S)-2,7-Dimethyl-3-(3,4,5-trifluorophenyl)-5,7-dihydro-4H-pyrazolo[3,4-c]pyridin-6-yl]-(4-fluoro-1H-indazol-3-yl)methanone]

Same assay, conditions: 300 nM [Glycerol-1,3-3H]-oleyl glycerol, one hour incubation

Row | SMILES | IC50
12 | COc1cc(F)cc(-c2c3c(nn2C)[C@H](C)N(C(=O)c2cc4nccnc4cc2F)CC3)c1 [Example 187, (S)-(3-(3-Fluoro-5-methoxyphenyl)-2,7-dimethyl-2,4,5,7-tetrahydro-6H-pyrazolo[3,4-c]pyridin-6-yl)(7-fluoroquinoxalin-6-yl)methanone] | 41.7 nM
13 | Cn1nc2c(c1-c1ccccc1)CCN(C(=O)c1c[nH]c3cccc(Cl)c13)C2 [Example 49, (4-Chloro-1H-indol-3-yl)(2-methyl-3-phenyl-2,4,5,7-tetrahydro-6H-pyrazolo[3,4-c]pyridin-6-yl)methanone] | 461 nM
14 | COc1cc(C(=O)N2CCc3c(nn(C)c3-c3cc(F)c(F)c(F)c3)[C@@H]2C)nn1C [Example 200, (S)-(2,7-Dimethyl-3-(3,4,5-trifluorophenyl)-2,4,5,7-tetrahydro-6H-pyrazolo[3,4-c]pyridin-6-yl)(5-methoxy-1-methyl-1H-pyrazol-3-yl)methanone] | 295 nM
15 | C[C@H]1c2nn(C)c(-c3cc(F)c(F)c(F)c3)c2CCN1C(=O)c1ccc(-n2ccnc2)cc1 [Example 267, [(7S)-2,7-Dimethyl-3-(3,4,5-trifluorophenyl)-5,7-dihydro-4H-pyrazolo[3,4-c]pyridin-6-yl]-(4-imidazol-1-ylphenyl)methanone] | 576 nM
16 | COc1cc(F)cc(-c2c3c(nn2C)[C@H](C)N(C(=O)c2ccc4nccnc4c2)CC3)c1 [Example 186, (S)-(3-(3-Fluoro-5-methoxyphenyl)-2,7-dimethyl-2,4,5,7-tetrahydro-6H-pyrazolo[3,4-c]pyridin-6-yl)(quinoxalin-6-yl)methanone] | 46 nM
17 | CCc1nc(C(=O)N2CCc3c(nn(C)c3-c3cc(F)cc(F)c3)[C@@H]2C)nn1-c1ccccc1 [Example 149, (S)-(3-(3,5-Difluorophenyl)-2,7-dimethyl-2,4,5,7-tetrahydro-6H-pyrazolo[3,4-c]pyridin-6-yl)(5-ethyl-1-phenyl-1H-1,2,4-triazol-3-yl)methanone] | 11.9 nM
18 | C[C@H]1c2nn(C)c(-c3cccc(Cl)c3)c2CCN1C(=O)c1ncn(-c2ccccc2)n1 [Example 117, (S)-(3-(3-Chlorophenyl)-2,7-dimethyl-2,4,5,7-tetrahydro-6H-pyrazolo[3,4-c]pyridin-6-yl)(1-phenyl-1H-1,2,4-triazol-3-yl)methanone] | 56.7 nM
19 | C[C@@H]1c2nn(C)c(-c3cc(F)c(F)c(F)c3)c2CCN1C(=O)c1ccc2ncccc2c1 [Example 235, (R)-(2,7-Dimethyl-3-(3,4,5-trifluorophenyl)-2,4,5,7-tetrahydro-6H-pyrazolo[3,4-c]pyridin-6-yl)(quinolin-6-yl)methanone] | 3660 nM
20 | Cn1nc2c(c1-c1ccccc1)CCN(C(=O)c1cccc(OC(F)(F)F)c1F)C2 [Example 4, (2-Fluoro-3-(trifluoromethoxy)phenyl)(2-methyl-3-phenyl-2,4,5,7-tetrahydro-6H-pyrazolo[3,4-c]pyridin-6-yl)methanone] | 433 nM

Next, values leading:

Row | IC50 | SMILES
21 | 1800 nM | Cn1nc2c(c1-c1ccccc1)CCN(C(=O)c1cccc3ccnn13)C2 [Example 75, (2-Methyl-3-phenyl-2,4,5,7-tetrahydro-6H-pyrazolo[3,4-c]pyridin-6-yl)(pyrazolo[1,5-a]pyridin-7-yl)methanone]
22 | 14.6 nM | C[C@H]1c2nn(C)c(-c3cc(F)c(F)c(F)c3)c2CCN1C(=O)c1cccc(-c2cn[nH]c2)c1 [Example 272, [(7S)-2,7-Dimethyl-3-(3,4,5-trifluorophenyl)-5,7-dihydro-4H-pyrazolo[3,4-c]pyridin-6-yl]-[3-(1H-pyrazol-4-yl)phenyl]methanone]
23 | 24.2 nM | C[C@H]1c2nn(C)c(-c3cc(F)c(F)c(F)c3)c2CCN1C(=O)c1ccc(-c2cn[nH]c2)cc1 [Example 268, [(7S)-2,7-Dimethyl-3-(3,4,5-trifluorophenyl)-5,7-dihydro-4H-pyrazolo[3,4-c]pyridin-6-yl]-[4-(1H-pyrazol-4-yl)phenyl]methanone]
24 | 108 nM | Cn1nc2c(c1-c1ccccc1)CCN(C(=O)c1cccc3cnccc13)C2 [Example 92, Isoquinolin-5-yl(2-methyl-3-phenyl-2,4,5,7-tetrahydro-6H-pyrazolo[3,4-c]pyridin-6-yl)methanone]
25 | 0.64 nM | C[C@H]1c2nn(C)c(-c3cc(F)c(F)c(F)c3)c2CCN1C(=O)c1ccnc2c1ccn2C [Example 225, (S)-(2,7-Dimethyl-3-(3,4,5-trifluorophenyl)-2,4,5,7-tetrahydro-6H-pyrazolo[3,4-c]pyridin-6-yl)(1-methyl-1H-pyrrolo[2,3-b]pyridin-4-yl)methanone]
26 | 13.8 nM | [2H]C([2H])([2H])n1nc2c(c1-c1cc(F)cc(F)c1)CCN(C(=O)c1ccc3ncccc3c1)C2C (centres unmarked) [Example 157, (3-(3,5-Difluorophenyl)-7-methyl-2-(methyl-d3)-2,4,5,7-tetrahydro-6H-pyrazolo[3,4-c]pyridin-6-yl)(quinolin-6-yl)methanone]
27 | 219 nM | COc1ccnc(C(=O)N2CCc3c(nn(C)c3-c3cc(F)c(F)c(F)c3)[C@@H]2C)c1 [Example 309, [(7S)-2,7-Dimethyl-3-(3,4,5-trifluorophenyl)-5,7-dihydro-4H-pyrazolo[3,4-c]pyridin-6-yl]-(4-methoxy-2-pyridyl)methanone]
28 | 64.7 nM | Cn1nc2c(c1-c1ccccc1)CCN(C(=O)c1ccc3[nH]ccc3c1)C2 [Example 43, (1H-Indol-5-yl)(2-methyl-3-phenyl-2,4,5,7-tetrahydro-6H-pyrazolo[3,4-c]pyridin-6-yl)methanone]
29 | 11.1 nM | C[C@H]1c2nn(C)c(-c3cc(F)c(F)c(F)c3)c2CCN1C(=O)c1cccc2cnn(C)c12 [Example 209, (S)-(2,7-Dimethyl-3-(3,4,5-trifluorophenyl)-2,4,5,7-tetrahydro-6H-pyrazolo[3,4-c]pyridin-6-yl)(1-methyl-1H-indazol-7-yl)methanone]
